Where a SMILES comes first, the peptide text is derived from it. [ ]: non-standard residue; d: D form. pGlu = O=C1CC[C@@H](C(=O)O)N1
Tested on: diet-induced obese male mice
Assay: 3-day food intake and body weight under daily dosing
Format: in vivo, mouse
Conditions: for Food Intake: 50 mg/kg
Protocol: Fig. 5 Functional studies of […] in feeding and energy balance in mice. a Schematic of the primary amino acid sequence for full-length mouse GDF15 preproprotein and annotation of CAP-GDF15 sequence as well as the canonical GDF15 hormone sequence. b–d Food intake (b), respiratory exchange ratio (RER, c), and ambulatory activity (d) of 12–16-week diet-induced obese male mice following a single treatment of CAP-GDF15 (50 mg/kg, intraperitoneal) or vehicle control. e–g Food intake (e), RER (f), and ambulatory activity (g) of 12–16-week diet-induced obese male mice following a single treatment of scrambled CAP-GDF15 (50 mg/kg, intraperitoneal, scrambled sequence: pGlu-[…]-NH2) or vehicle control. h, i 3-day food intake (h) and body weight (i) of 12–16-week diet-induced obese male mice following treatment with CAP-GDF15 or scrambled CAP-GDF15 (50 mg/kg/day, IP), or vehicle control. Data are shown as means ± SEM. b–d, N = 12 mice/group; for e, f N = 8 mice/group; for h N = 7 food cages for vehicle and CAP-GDF15 groups and N = 5 for the scrambled peptide group; for i N = 14 mice for the vehicle group, N = 13 for the CAP-GDF15 group, and N = 5 for the scrambled peptide group. b–i injection occurred at time T = 0 (5:00 pm) and data were collected for the following 16 hrs. For (b-i), p values were calculated by two-way ANOVA. Source data are provided as a Source Data file.
Lastly, to determine whether the acute food intake suppressive effects of CAP-GDF15 would lead to long-term suppression of feeding and obesity, we administered CAP-GDF15 or scrambled CAP-GDF15 (50 mg/kg/day, IP), or vehicle control to diet-induced obese mice. Food intake and body weight were monitored over a three-day period. A durable suppression of food intake in CAP-GDF15-treated mice was over the three-day experiment (Vehicle, 7.3 ± 0.5 g/mouse; […], 4.1 ± 0.9 g/mouse/day, P < 0.05, Fig. 5h). Consequently, and as expected, an increasing reduction in body weight was also detected (Vehicle, +0.1 ± 0.3 g/mouse; CAP-GDF15, −1.9 ± 0.3 g/mouse, P < 0.001, Fig. 5i). Importantly, mice treated with the scrambled CAP-GDF15 peptide were indistinguishable in body weight or food intake from control mice (P > 0.05 versus vehicle-treated mice, Fig. 5h, i).
Animal experiments were performed according to a procedure approved by the Stanford University Administrative Panel on Laboratory Animal Care. Mice were maintained in 12-h light-dark cycles at 22 °C and about 50% relative humidity and fed a standard irradiated rodent diet. Where indicated, a high-fat diet (D12492, Research Diets 60% kcal from fat) was used. Male C57BL/6 J (stock number 000664) and male C57BL/6 J DIO mice were purchased from the Jackson Laboratory (stock number 380050). For studies in high-fat diet-fed mice, peptides were dissolved in 18:1:1 (by volume) of saline:Kolliphor EL (Sigma Aldrich):DMSO and administered to mice by intraperitoneal injections at a volume of 10 µl/g at the indicated doses for the indicated times. For lipopolysacchardide injection, LPS (Sigma, #L2880-10MG) was dissolved in saline and administered to mice at a volume of 5 µl/g at indicated dose. For fasting, food was removed from mice for 16 h. For running, a six-lane Columbus Instruments animal treadmill (product 1055-SRM-D65) was used with following 1 h protocol: 10 min at 6 m/min, 50 min at 18 m/min, and increase every 2 min by 2 m/min for the last 10 minutes, all at 12° incline. For all treatment experiments, mice were mock injected with the vehicle for 3–5 days until body weights were stabilized. Heparin plasma was harvested by submandibular bleed. For all experiments, mice were randomly assigned to treatment groups. Experimenters were not blinded to groups.

With `CC(C)C[C@H](NC(=O)[C@@H]1CCC(=O)N1)C(=O)N[C@@H](CCC(=O)O)C(=O)N[C@@H](CC(C)C)C(=O)N[C@@H](CCCNC(=N)N)C(=O)N[C@@H](CC(C)C)C(=O)N[C@@H](CCCNC(=N)N)C(=O)N[C@H](C(=O)N[C@@H](C)C(=O)N[C@@H](C)C(=O)NCC(=O)N[C@@H](CCCNC(=N)N)C(N)=O)C(C)C` [CAP-GDF15] ([pGlu]LELRLRVAAGR-NH2) the “Food Intake” value (24 h, individual animal 1) was 0.5 g, the “Food Intake” value (24 h, individual animal 2) was 2.2 g and the “Food Intake” value (24 h, individual animal 3) was 1.3 g. For the same molecule, the “Food Intake” value (24 h, individual animal 4) was 1.4 g, the “Food Intake” value (24 h, individual animal 5) was 0.3 g and the “Food Intake” value (24 h, individual animal 6) was 0.825 g. For the same molecule, the “Food Intake” value (24 h, individual animal 7) was 0.525 g, the “Food Intake” value (48 h, individual animal 1) was 1.2 g and the “Food Intake” value (48 h, individual animal 2) was 5 g. For the same molecule, the “Food Intake” value (48 h, individual animal 3) was 2.9 g, the “Food Intake” value (48 h, individual animal 4) was 4.1 g and the “Food Intake” value (48 h, individual animal 5) was 0.6 g. For the same molecule, the “Food Intake” value (48 h, individual animal 6) was 1.8 g, the “Food Intake” value (48 h, individual animal 7) was 1.325 g and the “Food Intake” value (72 h, individual animal 1) was 2.9 g. For the same molecule, the “Food Intake” value (72 h, individual animal 2) was 7.8 g, the “Food Intake” value (72 h, individual animal 3) was 4.9 g and the “Food Intake” value (72 h, individual animal 4) was 6.7 g. The “Food Intake” value (72 h, individual animal 5) was 0.8 g, the “Food Intake” value (72 h, individual animal 6) was 2.95 g and the “Food Intake” value (72 h, individual animal 7) was 2.775 g. The “body weight change over three days” value (50 mg/kg/day IP, diet-induced obese mice, mean ± SEM, N = 13 mice) was −1.9 ± 0.3 g/mouse.

From article PMC10709327, “A class of secreted mammalian peptides with potential to expand cell-cell communication” (Nature Communications, 2023)
